Measurements as given in patent publication US10987342B2, “Methods and compositions for transdermal delivery of a non-sedative amount of dexmedetomidine” (Teikoku Pharma USA, Inc., priority 2013, dated 2021).
Like-named read-outs stand apart in the source and are kept apart here.

solubility of dexmedetomidine (in Duro-Tak 87-2979): less than 2%
solubility of dexmedetomidine (in Duro-Tak 387/87-2353 (acid functionalized acrylate polymer)): 10-15%
solubility of dexmedetomidine (in hydroxyl functionalized acrylate polymer): less than 1%
solubility of dexmedetomidine (in levulinic acid): ~60%
solubility of dexmedetomidine (in oleic acid): ~40%
SMILES: Cc1cccc([C@H](C)c2cnc[nH]2)c1C [dexmedetomidine, Dexmedetomidine]
